# From paper PMC6827013, “Alpha-Glucosidase and Alpha-Amylase Inhibitory Activities of Novel Abietane Diterpenes from Salvia africana-lutea” (Antioxidants, 2019)
# Like-named read-outs stand apart in the source and are kept apart here.
# Tests used:
# [1] = Trolox equivalent absorbance capacity (TEAC) assay
# Experimental: The total anti-oxidant activity of the test sample was measured using previously described methods. Absorbance was read at 734 nm at 25 °C in a plate reader, and the results were expressed as μmole Trolox equivalents per […] of dry weight (μM TE/g DW) of the test samples.
# (§1) The in vitro antioxidant activity of the isolated compounds of the methanolic extract of S. africana-lutea were investigated by evaluating their ferric-ion reducing antioxidant power (FRAP), trolox equivalent absorbance capacity (TEAC), and oxygen radical absorbance capacity (ORAC) activities. […] Phenolic compounds have been reported to be responsible for the antioxidant activity of numerous plant species by stabilization of radicals by donating electrons or by metal ion complexation, among other mechanisms. Nevertheless, other aspects can be considered, for example, the presence of vicinal hydroxyl groups is essential in a pronounced antioxidant activity. Abietane diterpenes are known for having strong antioxidant activity due to the presence of ortho-dihydroxyl groups/vicinal hydroxyls in the aromatic ring that serve as hydrogen and/or electron donating agents to the corresponding reactive species leading to the formation of the stable quinone derivatives. It has been shown that the phenolic group at the 11 position would be more implicated in the antioxidant activity. In general, phenolic compounds are expected to transfer electrons or donate protons to the reactive radicals because of the resonance stability of the phenoxy radical.
# [2] = Ferric-ion reducing antioxidant power (FRAP) assay; details: ascorbic acid equivalents; mean ± SEM, n = 3
# Experimental: The FRAP assay was carried out in accordance with the method described previously. […] L-Ascorbic acid was used as a standard, and the results were expressed as µmole ascorbic acid equivalents per […] of dry weight (μM AAE/g DW) of the test samples.
# The in vitro antioxidant activity of the isolated compounds of the methanolic extract of S. africana-lutea were investigated by evaluating their ferric-ion reducing antioxidant power (FRAP), trolox equivalent absorbance capacity (TEAC), and oxygen radical absorbance capacity (ORAC) activities. […] Nevertheless, other aspects can be considered, for example, the presence of vicinal hydroxyl groups is essential in a pronounced antioxidant activity. […] It has been shown that the phenolic group at the 11 position would be more implicated in the antioxidant activity. In general, phenolic compounds are expected to transfer electrons or donate protons to the reactive radicals because of the resonance stability of the phenoxy radical.
# [3] = Oxygen radical absorbance capacity (ORAC) assay
# From the text: ORAC assay was done according to the previous method. ORAC values were expressed as micromoles of trolox equivalents (TE) per milligram of the test sample. Samples without a perfect curve were further diluted, and the dilution factors were used in the calculations of such samples.
# as §1
# [4] = molecular target: α-glucosidase (Saccharomyces cerevisiae); test: Alpha-glucosidase inhibitory activity (p-NPG substrate, absorbance 405 nm); type: biochemical; details: mean ± SEM, n = 3; NA = not active at the test concentrations
# Experimental: Alpha-glucosidase inhibitory activity of the isolated compounds was carried out according to the standard method, with a slight modification. […] Next, 20 μL of p-NPG (5 mM) was added as a substrate and incubated further at 37 °C for 20 min. The reaction was stopped by adding 50 μL of sodium carbonate Na2CO3 (0.1 M). […] Each experiment was performed in triplicates. […] Inhibitory activity (%) = (1 − A/B) ×100(1) where A is the absorbance in the presence of the test substance and B is the absorbance of the control.
# [5] = molecular target: T1, α-amylase (procaine pancreas) (Sus scrofa, UniProt P00690); test: Alpha-amylase inhibitory activity (starch substrate, DNS, absorbance 540 nm); type: biochemical; details: mean ± SEM, n = 3; NA = not active at the test concentrations
# T1 construct: α-amylase (procaine pancreas); purchased Sigma-Aldrich, Cape town, South Africa; host or cells: pancreas
# T1 sequence (P00690 16-511): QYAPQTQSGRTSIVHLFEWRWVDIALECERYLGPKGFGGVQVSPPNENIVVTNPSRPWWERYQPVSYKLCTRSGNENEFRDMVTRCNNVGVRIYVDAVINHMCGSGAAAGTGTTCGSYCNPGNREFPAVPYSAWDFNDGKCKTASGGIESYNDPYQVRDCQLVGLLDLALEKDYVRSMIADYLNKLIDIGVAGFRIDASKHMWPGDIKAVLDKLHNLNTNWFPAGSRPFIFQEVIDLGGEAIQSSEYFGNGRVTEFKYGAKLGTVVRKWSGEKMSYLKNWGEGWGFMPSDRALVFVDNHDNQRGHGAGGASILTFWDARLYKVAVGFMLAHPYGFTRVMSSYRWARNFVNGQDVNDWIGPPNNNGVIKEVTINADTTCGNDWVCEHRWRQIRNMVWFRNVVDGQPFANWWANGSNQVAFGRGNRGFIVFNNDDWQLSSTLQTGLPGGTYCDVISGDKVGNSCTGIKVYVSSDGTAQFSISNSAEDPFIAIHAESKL
# Experimental: The alpha-amylase inhibitory activity of the extract and fractions was carried out according to the standard method, with a slight modification [24]. In a 96-well plate, the reaction mixture containing 50 μL of phosphate buffer (100 mM, pH = 6.8), 10 μL alpha amylase (2 U/mL), and 20 μL of varying concentrations of isolated compounds was pre-incubated at 37 °C for 20 min. Next, 20 μL of 1% soluble starch (100 mM phosphate buffer pH 6.8) was added as a substrate and incubated further at 37 °C for 30 min. A volume of 100 μL of the color reagent (DNS) was added and then boiled for 10 min. The absorbance of the resulting mixture was measured at 540 nm using a Multiplate Reader (Multiskan thermo scientific, version 1.00.40). […] Each experiment was performed in triplicates. The results were expressed as the percentage inhibition, which was calculated using Formula (2). Inhibitory activity (%) = (1 − A/B) ×100(2) where A is the absorbance in the presence of the test substance and B is the absorbance of the control.
# [6] = Trolox equivalents, mean ± SEM, n = 3, NA = not active at the test concentrations
Alpha-Glucosidase IC50 [4] [µg/mL],IC50 [5] [µM],SMILES,"TEAC [1, 6] [µmole TE/g]",FRAP [2] [µM AAE/g],ORAC [3] [µM TE/g],"ORAC [3, 6] [µmole TE/g]",TEAC [1] [µM TE/g]
–,–,"COc1c(C(C)C)cc2c(c1O)[C@@]1(C(=O)O)CCC[C@](C)(COC(C)=O)C1CC2 (stereo partly shown) [Compound 1, 19-acetoxy-12-methoxycarnosic acid]",694.0 ±1.6,1217.4 ± 2.9,2588.2 ± 10.1,2588.2 ± 10.1,–
–,–,"COC1c2cc(C(C)C)c(O)c(O)c2C23CCC(OC(C)=O)C(C)(C)C2C1OC3=O (stereo not drawn) [Compound 2, 3β-acetoxy-7α-methoxyrosmanol]",635.7 ± 0.8,2200.9 ± 14.2,–,2233.9 ± 8.0,–
–,–,"COC1c2cc(C(C)C)c(O)c(O)c2C23CCCC(C)(COC(C)=O)C2C1OC3=O (stereo not drawn) [Compound 3, 19-acetoxy-7α-methoxyrosmanol]",124.4 ± 0.6,1440.4 ± 9.1,–,735.4 ± 2.0,–
–,–,"COc1c(C(C)C)cc2c(c1O)C13CCCC(C)(COC(C)=O)C1CC2OC3=O (stereo not shown) [Compound 4, 19-acetoxy-12-methoxy carnosol]",440.1 ± 1.5,1257.0 ± 6.7,–,559.7 ± 15.2,–
–,–,"CC(C)c1cc2c(c(O)c1O)[C@]13CCC[C@](C)(C(O)OC1=O)C3CC2 (stereo partly shown) [Compound 5, clinopodiolide A]",862.2 ± 1.4,2262.9 ± 11.0,–,2357.2 ± 0.1,862.2 ± 1.4
81.7 ± 2.1,–,"COc1c(C(C)C)cc2c(c1O)[C@]13CCC[C@](C)(C(O)OC1=O)C3CC2 (stereo partly shown) [Compound 6, clinopodiolide B]",724.9 ± 1.3,1480.0 ± 3.9,–,1502.5 ± 21.2,705.5 ± 2.0
–,–,"CC1(C)CC[C@]2(C(=O)O)CC[C@]3(C)C(=CC[C@@H]4[C@@]5(C)CC[C@H](O)C(C)(C)[C@@H]5CC[C@]43C)[C@@H]2C1 [Compound 7, oleanolic acid]",–,347.8 ± 3.7,–,–,–
85.8 ± 2.3,–,"CC1CCC23CCC4(C)C5(C)CCC6C(C)(C)C(O)CCC6(C)C5C=CC4(OC2=O)C3C1C (stereo not shown) [Compound 9, 11,12-dehydroursolic acid lactone]",–,283.4 ± 3.9,–,–,–
17.1 ± 1.0,180,"CC1(C)CC[C@]2(C)CC[C@]3(C)C(=CC[C@@H]4[C@@]5(C)CC[C@H](O)C(C)(C)[C@@H]5CC[C@]43C)[C@@H]2C1 [Compound 10, β-amyrin]",–,412.2 ± 13.0,–,–,–
–,–,"O=C(O[C@@H]1Cc2c(O)cc(O)cc2O[C@@H]1c1cc(O)c(O)c(O)c1)c1cc(O)c(O)c(O)c1 [EGCG, Epigallocatechingallate, reference compound]",4146.4 ± 19.8,7525.0 ± 4.9,–,3976.8 ± 3.8,–
